Results reported in PubChem BioAssay (NCI).
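GI50 marks 50% less growth. Definition used: TGI = concentration required for complete inhibition of growth.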

Experiments:
Assay in all cases: NCI-60 cell line screen, 384-well format
CAKI-1 renal = test system: CAKI-1 renal
OVCAR-4 ovarian = test system: OVCAR-4 ovarian
MCF7 breast = test system: MCF7 breast
HCT-15 colon = test system: HCT-15 colon
SNB-75 CNS = test system: SNB-75 CNS
BT-549 breast = test system: BT-549 breast
NCI-H226 lung = test system: NCI-H226 lung
EKVX NSCLC = test system: EKVX NSCLC
HT29 colon = test system: HT29 colon
T-47D breast = test system: T-47D breast
SF-268 CNS = test system: SF-268 CNS
A549 NSCLC = test system: A549 NSCLC
PC-3 prostate = test system: PC-3 prostate
MDA-MB-435 melanoma = test system: MDA-MB-435 melanoma
CCRF-CEM leukemia = test system: CCRF-CEM leukemia
NCI-H460 NSCLC = test system: NCI-H460 NSCLC
NCI-H23 lung = test system: NCI-H23 lung
SF-295 CNS = test system: SF-295 CNS
SR leukemia = test system: SR leukemia
DU-145 prostate = test system: DU-145 prostate
IGROV1 ovarian = test system: IGROV1 ovarian
COLO 205 colon = test system: COLO 205 colon
SK-OV-3 ovarian = test system: SK-OV-3 ovarian
ACHN renal = test system: ACHN renal
OVCAR-3 ovarian = test system: OVCAR-3 ovarian
SN12C renal = test system: SN12C renal
KM12 colon = test system: KM12 colon
HOP-92 NSCLC = test system: HOP-92 NSCLC
M14 melanoma = test system: M14 melanoma

For `COc1cc2c(Nc3ccc(Cl)c(Cl)c3F)ncnc2cc1OCC1C[C@@H]2CN(C)C[C@@H]2C1` (stereo partly drawn), the GI50 (CAKI-1 renal) was 123 nM, the TGI (CAKI-1 renal) was 1600 nM and the GI50 (OVCAR-4 ovarian) was 1360 nM. The TGI (OVCAR-4 ovarian) was 3150 nM, the GI50 (MCF7 breast) was 1090 nM and the TGI (MCF7 breast) was 2300 nM. It also gave a GI50 (HCT-15 colon) of 890 nM, a TGI (HCT-15 colon) of 2130 nM and a GI50 (SNB-75 CNS) of 1310 nM. It also gave a TGI (SNB-75 CNS) of 2590 nM, a GI50 (BT-549 breast) of 1300 nM and a TGI (BT-549 breast) of 2580 nM. For the same compound, the GI50 (NCI-H226 lung) was 1260 nM, the TGI (NCI-H226 lung) was 2700 nM and the GI50 (EKVX NSCLC) was 47.2 nM. The TGI (EKVX NSCLC) was 1130 nM, the GI50 (HT29 colon) was 598 nM and the TGI (HT29 colon) was 1920 nM. It also gave a GI50 (T-47D breast) of 1020 nM, a TGI (T-47D breast) of 2230 nM and a GI50 (SF-268 CNS) of 1100 nM. For the same compound, the TGI (SF-268 CNS) was 2300 nM, the GI50 (A549 NSCLC) was 974 nM and the TGI (A549 NSCLC) was 2160 nM. For the same compound, the GI50 (PC-3 prostate) was 1120 nM, the TGI (PC-3 prostate) was 2500 nM and the GI50 (MDA-MB-435 melanoma) was 1690 nM. For the same compound, the TGI (MDA-MB-435 melanoma) was 3070 nM, the GI50 (CCRF-CEM leukemia) was 1520 nM and the TGI (CCRF-CEM leukemia) was 2850 nM. For the same compound, the GI50 (NCI-H460 NSCLC) was 1330 nM, the TGI (NCI-H460 NSCLC) was 2620 nM and the GI50 (NCI-H23 lung) was 1020 nM. It also gave a TGI (NCI-H23 lung) of 2230 nM, a GI50 (SF-295 CNS) of 1680 nM and a TGI (SF-295 CNS) of 3060 nM. It also gave a GI50 (SR leukemia) of 415 nM, a TGI (SR leukemia) of 801 nM and a GI50 (DU-145 prostate) of 557 nM. The TGI (DU-145 prostate) was 2180 nM, the GI50 (IGROV1 ovarian) was 33.2 nM and the TGI (IGROV1 ovarian) was 199 nM. The GI50 (COLO 205 colon) was 1810 nM, the TGI (COLO 205 colon) was 3280 nM and the GI50 (SK-OV-3 ovarian) was 189 nM. The TGI (SK-OV-3 ovarian) was 1430 nM, the GI50 (ACHN renal) was 69.1 nM and the TGI (ACHN renal) was 1280 nM. It also gave a GI50 (OVCAR-3 ovarian) of 93.8 nM, a TGI (OVCAR-3 ovarian) of 1520 nM and a GI50 (SN12C renal) of 161 nM. The TGI (SN12C renal) was 1400 nM, the GI50 (KM12 colon) was 1630 nM and the TGI (KM12 colon) was 3010 nM. For the same compound, the GI50 (HOP-92 NSCLC) was 1150 nM, the TGI (HOP-92 NSCLC) was 2370 nM and the GI50 (M14 melanoma) was 1650 nM. For the same compound, the TGI (M14 melanoma) was 3020 nM.
